{"source": "patent US11753377B2", "about": "“Crystal form of 2-methyl-2-propanol and amino-substituted aryl compound” (ZHUHAI UNITED LABORATORIES CO., LTD., priority 2020, dated 2023)", "key": {"[1]": {"assay": "Pharmacokinetics in cynomolgus monkeys, single intravenous injection", "type": "in vivo", "details": "male, cynomolgus monkey, plasma, 1 mg/kg single intravenous injection", "experimental": "Experimental objective: To study pharmacokinetics of the compound in cynomolgus monkeys\nExperimental material: Cynomolgus monkeys (male, 2.5-4 kg, greater than or equal to 2 years, Hainan Jingang)\n(§1) Pharmacokinetic characteristics of the compound were tested by intravenous injection in monkeys according to the standard protocol. In the experiment, the candidate compound was prepared as a clear solution, and was administrating to cynomolgus monkeys at 1 mg/kg by single intravenous injection. A vehicle for intravenous injection was a 10% hydroxypropyl β-cyclodextrin aqueous solution. Whole blood samples were collected at 0.033, 0.083, 0.25, 0.5, 1, 2, 4, 8, 12, and 24 hours, centrifuged at 3000 r for 10 min, and the supernatant was separated to obtain plasma samples. 20 μL of plasma samples were mixed with 400 μL of acetonitrile solution containing internal standard to precipitate protein, and the mixture was centrifuged, then 2 μL of the supernatant was injected. Plasma concentrations were quantitatively analyzed by LC-MS/MS analysis method, and pharmacokinetic parameters, such as clearance rate, half-life, and area under the concentration-time curve, were calculated."}, "CYP3A4": {"target": "T1, CYP3A4 (Homo sapiens, UniProt P08684)", "T1 construct": "pooled human liver microsomes were selected as a CYP450 enzyme source; from tissue; host or cells: pooled human liver microsomes", "T1 sequence (P08684 whole entry)": "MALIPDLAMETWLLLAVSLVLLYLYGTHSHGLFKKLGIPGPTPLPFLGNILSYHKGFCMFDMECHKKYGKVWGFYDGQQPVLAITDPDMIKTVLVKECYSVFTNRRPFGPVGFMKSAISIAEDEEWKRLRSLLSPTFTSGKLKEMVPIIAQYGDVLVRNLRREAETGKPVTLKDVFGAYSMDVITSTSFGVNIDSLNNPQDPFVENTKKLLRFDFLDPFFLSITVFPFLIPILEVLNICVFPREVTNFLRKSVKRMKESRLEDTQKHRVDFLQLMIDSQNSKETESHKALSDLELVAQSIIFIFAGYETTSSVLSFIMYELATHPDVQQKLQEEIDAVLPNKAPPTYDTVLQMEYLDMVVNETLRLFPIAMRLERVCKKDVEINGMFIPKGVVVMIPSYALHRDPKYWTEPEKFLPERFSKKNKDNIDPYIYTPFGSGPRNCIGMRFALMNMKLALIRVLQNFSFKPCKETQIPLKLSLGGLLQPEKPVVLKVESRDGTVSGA", "assay": "Inhibition of human liver microsomal cytochrome P450 CYP3A4", "type": "in vitro ADME", "details": "pooled human liver microsomes, two probe substrates, NADPH", "from_the_text": "(§2) Experimental objective: To study the inhibitory effect of compounds on human liver microsomal cytochrome P450. Experimental processes: In the study on inhibition of the compounds on the human liver microsomal cytochrome P450 (CYP1A2, CYP2C9, CYP2C19, CYP2D6 and CYP3A4), pooled human liver microsomes were selected as a CYP450 enzyme source."}, "CYP2C9": {"target": "T2, CYP2C9 (Homo sapiens, UniProt P11712)", "T2 construct": "pooled human liver microsomes were selected as a CYP450 enzyme source; from tissue; host or cells: pooled human liver microsomes", "T2 sequence (P11712 whole entry)": "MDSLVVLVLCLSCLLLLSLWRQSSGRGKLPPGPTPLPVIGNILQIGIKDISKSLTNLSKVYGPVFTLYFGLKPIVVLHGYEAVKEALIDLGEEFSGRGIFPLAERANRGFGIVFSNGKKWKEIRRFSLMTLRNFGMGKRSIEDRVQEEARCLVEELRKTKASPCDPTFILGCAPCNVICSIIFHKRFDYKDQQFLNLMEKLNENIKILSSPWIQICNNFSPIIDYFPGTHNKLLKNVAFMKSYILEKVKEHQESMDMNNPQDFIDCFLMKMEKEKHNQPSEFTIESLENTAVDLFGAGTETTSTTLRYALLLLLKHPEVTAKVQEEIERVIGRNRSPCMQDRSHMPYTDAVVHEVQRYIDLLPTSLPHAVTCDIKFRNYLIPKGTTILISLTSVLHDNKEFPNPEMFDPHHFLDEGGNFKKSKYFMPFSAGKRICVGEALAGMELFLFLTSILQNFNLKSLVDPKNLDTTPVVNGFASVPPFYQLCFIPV", "assay": "Inhibition of human liver microsomal cytochrome P450 CYP2C9", "type": "in vitro ADME", "details": "pooled human liver microsomes, probe substrate, NADPH", "from_the_text": "as §2"}, "CYP1A2": {"target": "T3, CYP1A2 (Homo sapiens, UniProt P05177)", "T3 construct": "pooled human liver microsomes were selected as a CYP450 enzyme source; from tissue; host or cells: pooled human liver microsomes", "T3 sequence (P05177 1-516)": "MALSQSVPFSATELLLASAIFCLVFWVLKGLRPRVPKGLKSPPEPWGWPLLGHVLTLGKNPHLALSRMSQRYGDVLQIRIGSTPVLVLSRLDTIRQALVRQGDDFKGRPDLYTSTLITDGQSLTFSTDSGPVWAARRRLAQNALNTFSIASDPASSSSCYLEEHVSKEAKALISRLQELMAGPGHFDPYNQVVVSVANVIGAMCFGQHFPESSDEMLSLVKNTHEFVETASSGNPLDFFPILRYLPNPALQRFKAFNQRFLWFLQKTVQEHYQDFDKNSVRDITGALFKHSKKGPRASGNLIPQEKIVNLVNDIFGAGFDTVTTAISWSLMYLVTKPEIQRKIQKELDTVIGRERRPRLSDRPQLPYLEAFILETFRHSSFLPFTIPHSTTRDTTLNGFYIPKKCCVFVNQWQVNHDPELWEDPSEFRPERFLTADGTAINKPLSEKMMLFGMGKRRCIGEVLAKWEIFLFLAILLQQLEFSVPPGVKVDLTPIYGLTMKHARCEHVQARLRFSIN", "assay": "Inhibition of human liver microsomal cytochrome P450 CYP1A2", "type": "in vitro ADME", "details": "pooled human liver microsomes, probe substrate, NADPH", "from_the_text": "as §2"}, "CYP2D6": {"target": "T4, CYP2D6 (Homo sapiens, UniProt P10635)", "T4 construct": "pooled human liver microsomes were selected as a CYP450 enzyme source; from tissue; host or cells: pooled human liver microsomes", "T4 sequence (P10635 whole entry)": "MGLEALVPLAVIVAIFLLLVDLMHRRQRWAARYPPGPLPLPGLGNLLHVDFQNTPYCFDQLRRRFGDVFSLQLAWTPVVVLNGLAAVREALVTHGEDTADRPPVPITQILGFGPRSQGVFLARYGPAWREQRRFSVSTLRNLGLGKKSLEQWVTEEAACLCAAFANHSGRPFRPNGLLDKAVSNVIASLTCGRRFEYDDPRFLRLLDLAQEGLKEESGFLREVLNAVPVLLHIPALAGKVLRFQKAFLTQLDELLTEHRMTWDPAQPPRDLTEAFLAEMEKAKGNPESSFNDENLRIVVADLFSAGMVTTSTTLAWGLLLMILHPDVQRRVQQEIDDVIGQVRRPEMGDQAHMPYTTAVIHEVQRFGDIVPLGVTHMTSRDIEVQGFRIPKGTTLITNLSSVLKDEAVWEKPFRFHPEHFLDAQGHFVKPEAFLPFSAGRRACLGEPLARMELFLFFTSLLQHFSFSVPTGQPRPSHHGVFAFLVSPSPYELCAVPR", "assay": "Inhibition of human liver microsomal cytochrome P450 CYP2D6", "type": "in vitro ADME", "details": "pooled human liver microsomes, probe substrate, NADPH", "from_the_text": "as §2"}, "xerophthalmia in mice": {"tested_on": "xerophthalmia in mice", "assay": "In vivo efficacy: scopolamine-induced xerophthalmia in mice (tear test, corneal fluorescence staining score)", "parameters": "species or system C57BL/6J mice", "details": "scopolamine model, 0.5% eye drops 3 μL/eye 4 times/day", "from_the_text": "Subcutaneous injection of scopolamine may induce the xerophthalmia in mice. Decreased tear secretion and inflammatory infiltration can be observed by tear tests and corneal fluorescence staining scores. Furthermore, it is possible to predict whether the model can reach the expected severity at the beginning of the modeling.\nExperimental Design: • Twenty animals were selected from 25 female C57BL/6J mice and randomized into 4 groups by body weight via Provantis or Excel, […], and the grouping might also refer to the results of the tear test and the corneal fluorescence staining score of each animal prior to the experiment. • The mice were injected subcutaneously with scopolamine hydrobromide (3±0.5 h) for 4 times daily at 0.1 mL/animal/time on Day 1 to Day 12 of the experiment to establish xerophthalmia models in the mice. • On Day 1 to Day 13 of the experiment, animals were administrated by binocular eye drops for 4 times daily (3±0.5 h) at 3 μL/eye (on Day 13, animals in Group 1 were not administrated). […]\nTear tests and corneal fluorescence staining scores were performed on all experimental animals on Day 7 and Day 12 prior to modeling.\nCriteria for corneal fluorescence staining scores: The cornea of an animal was divided into 5 regions, respectively being upper, lower, nasal, temporal and central regions, and each region was 0-3 points, and each region was scored. […]"}, "CYP2C19": {"target": "T5, CYP2C19 (Homo sapiens, UniProt P33261)", "T5 construct": "pooled human liver microsomes were selected as a CYP450 enzyme source; from tissue; host or cells: pooled human liver microsomes", "T5 sequence (P33261 whole entry)": "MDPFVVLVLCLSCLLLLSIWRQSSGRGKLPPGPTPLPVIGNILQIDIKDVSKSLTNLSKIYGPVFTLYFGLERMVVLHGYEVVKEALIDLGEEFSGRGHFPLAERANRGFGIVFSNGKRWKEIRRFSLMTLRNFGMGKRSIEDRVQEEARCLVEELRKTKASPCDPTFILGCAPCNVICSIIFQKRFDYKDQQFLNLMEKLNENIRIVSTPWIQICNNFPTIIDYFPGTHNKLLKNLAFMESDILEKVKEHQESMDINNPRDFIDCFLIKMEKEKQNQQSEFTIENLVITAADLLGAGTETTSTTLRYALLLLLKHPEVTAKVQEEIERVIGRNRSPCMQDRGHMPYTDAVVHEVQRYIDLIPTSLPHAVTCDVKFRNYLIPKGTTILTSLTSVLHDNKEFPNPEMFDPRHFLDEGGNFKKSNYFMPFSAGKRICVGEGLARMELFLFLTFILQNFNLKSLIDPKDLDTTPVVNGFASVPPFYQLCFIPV", "assay": "Inhibition of human liver microsomal cytochrome P450 CYP2C19", "type": "in vitro ADME", "details": "pooled human liver microsomes, probe substrate, NADPH", "from_the_text": "as §2"}, "[2]": {"assay": "In vitro aldehyde capture capacity experiment (complexation with nonanal, HPLC at 254 nm)", "from_the_text": "Experimental Embodiment 1: In Vitro Aldehyde Capture Capacity Experiment\n1. Experiment Objectives and Processes\nObjectives: Xerophthalmia is caused by inflammation inside the eyes, wherein the inflammation may produce aldehydes in the body that will accelerate the inflammation symptoms and worsen the xerophthalmia if not eliminated in time. In the experiment, a relatively good compound was selected according to the complexing capacity of the drug and aldehydes in vivo by simulating the in vivo environment.\nProcesses: Sulfobutyl-B-cyclodextrin (310 mg) was dissolved in a phosphate buffer (1.25 mL) to prepare a solution.\nNonanal (5.0 mg, 32 μmol, 1.0 eq) and triolein (300 mg) were added to a reaction flask at room temperature, after the prepared solution described above was added thereto, linoleic acid (300 mg) was added thereto, and finally a dimethyl sulfoxide (0.15 mL) solution containing the compound (32 μmol, 1.0 eq) of the present disclosure was added thereto; the reaction solution was reacted at 20-23° C.\nThe reaction solution was reacted under stirring for 10 min, 100 min, 200 min, and 300 min respectively, and sampled for high performance liquid chromatography after the solution was stratified after standing for 2 min.\nSampling method: 25 μL of an upper emulsified layer and 50 μL of a lower aqueous layer were sampled by a pipette, and samples were diluted with 1 mL of methanol.\nTherefore, the percentage contents of complexes at 254 nm under high performance liquid chromatography were compared to observe the ability of compounds to capture and complex aldehydes, as shown in FIG. 4 and Table 6:\nThe HPLC analysis method is detailed in Table 7, which is XBRIGE 2.5 μm, 3.0*100 mm 5-80CD_XBEH_12 min_0.8.lcm\nAfter 300 min of reaction, retention times of 6.689 min, 6.787 min, 6.966 min, and 7.102 min were absorption peaks of products complexed with monomolecular aldehyde; retention times of 8.905 min, 9.010 min, and 9.075 min were absorption peaks of products complexed with bimolecular aldehyde."}, "[3]": {"assay": "Pharmacokinetics in Beagle dogs, single intravenous injection", "type": "in vivo", "details": "male, dog, plasma, 1 mg/kg single intravenous injection", "experimental": "Experimental objective: To study pharmacokinetics of the compound in Beagle dogs\nExperimental material: Beagle dogs (male, 8-11 kg, greater than or equal to 6 months, Marshall)\nas §1, with “rodents” for “monkeys”, “Beagle dogs” for “cynomolgus monkeys”, “hours, respectively,” for “hours,”"}, "[4]": {"assay": "Corneal to plasma drug concentration after eye drop administration in rats", "type": "in vivo", "details": "male, rat, topical, SD rats", "experimental": "Experimental objective: To study the ratio of corneal to plasma drug concentration after eye drop administration in rats\nExperimental material: Male SD rats, 200-300 g, 7-9 weeks old, Shanghai Lingchang\nExperimental processes: The candidate compound was prepared as a clear solution, and administrating to SD rats by eye drop administration. The vehicle for eye drops was 10% hydroxypropyl β-cyclodextrin aqueous solution, and the drug concentration in the eye drops was 5 mg/mL. Corneal and whole blood samples were collected at 1 and 4 hours, respectively. Corneal was homogenized using 15 mM phosphate buffer (PBS): MeOH (2:1, v:v) buffer, then the whole blood samples were centrifuged at 3000 r for 10 min, and the supernatant plasma samples were separated. 20 μL of the plasma samples and homogenate samples were respectively mixed with 400 μL of acetonitrile solution containing internal standard to precipitate protein, and the mixture was centrifuged, then 2 μL of the supernatant was injected. The plasma concentrations were quantitatively analyzed by LC-MS/MS analysis method; the drug concentrations in the cornea and plasma were measured respectively according to different time points, and the ratio of corneal/plasma was calculated."}, "[5]": {"details": "read-out: Area under the concentration-time curve AUC"}, "[6]": {"details": "read-out: Half-life T1/2 (converted)"}}, "note": "Like-named read-outs stand apart in the source and are kept apart here."}
{"smiles": "CC(C)(O)c1cc(F)c(-c2cnc(C(C)(C)O)c(N)c2)cc1N", "note": "[Compound represented by formula (I)]", "values": [{"measurement": "AUC", "setting": "[1]; [5]", "result": 13, "unit": "µM·h"}, {"measurement": "clearance", "setting": "[1]; read-out: Clearance rate", "result": 4.6, "unit": "mL/min/kg"}, {"measurement": "half-life", "setting": "[1]; [6]", "result": 3.91, "unit": "h"}, {"measurement": "IC50", "setting": "CYP3A4", "result": "> 50", "unit": "µM"}, {"measurement": "IC50", "setting": "CYP2C9", "result": "> 50", "unit": "µM"}, {"measurement": "IC50", "setting": "CYP1A2", "result": "> 50", "unit": "µM"}, {"measurement": "IC50", "setting": "CYP2D6", "result": "> 50", "unit": "µM"}, {"measurement": "Tear secretion", "setting": "xerophthalmia in mice; FIG. 5", "result": "improve"}, {"measurement": "Corneal inflammation (corneal fluorescence staining)", "setting": "xerophthalmia in mice; FIG. 6", "result": "improve"}, {"measurement": "IC50", "setting": "CYP2C19", "result": "> 50", "unit": "µM"}, {"measurement": "Ability and speed of complexing aldehydes", "setting": "[2]", "result": "very significant"}, {"measurement": "Percentage content of complexes at 254 nm", "setting": "[2]; Time 10 min", "result": 6.634, "unit": "%"}, {"measurement": "Percentage content of complexes at 254 nm", "setting": "[2]; Time 100 min", "result": 20.013, "unit": "%"}, {"measurement": "Percentage content of complexes at 254 nm", "setting": "[2]; Time 200 min", "result": 29.424, "unit": "%"}, {"measurement": "Percentage content of complexes at 254 nm", "setting": "[2]; Time 300 min", "result": 36.039, "unit": "%"}, {"measurement": "Area under the curve AUC", "setting": "[2]; percentage content of complexes at 254 nm versus time, 10-300 min", "result": 6944, "unit": "min.conversion"}, {"measurement": "Slope", "setting": "[2]; slope of linear equation, percentage content of complexes at 254 nm versus time 10-300 min, nonanal 1.0 eq, 20-23° C.", "result": 0.1002}, {"measurement": "AUC", "setting": "[3]; [5]", "result": 4.67, "unit": "µM·h"}, {"measurement": "clearance", "setting": "[3]; read-out: Clearance rate", "result": 11.3, "unit": "mL/min/kg"}, {"measurement": "half-life", "setting": "[3]; [6]", "result": 2.94, "unit": "h"}, {"measurement": "concentration at 1 h", "setting": "[4]; cornea, eye drops 5 mg/mL, 1 h, read-out: Corneal concentration", "result": 2450, "unit": "nM"}, {"measurement": "concentration at 4 h", "setting": "[4]; cornea, eye drops 5 mg/mL, 4 h, read-out: Corneal concentration", "result": 330, "unit": "nM"}, {"measurement": "Kp", "setting": "[4]; cornea/plasma, 5 mg/mL, eye drop administration, read-out: Ratio of cornea/plasma", "result": "> 10"}, {"measurement": "Kp at 1 h", "setting": "[4]; cornea/plasma, eye drops 5 mg/mL, 1 h, read-out: Corneal concentration/plasma concentration C/P ratio", "result": 11.8}, {"measurement": "Kp at 4 h", "setting": "[4]; cornea/plasma, eye drops 5 mg/mL, 4 h, read-out: Corneal concentration/plasma concentration C/P ratio", "result": 12.4}, {"measurement": "concentration at 1 h", "setting": "[4]; plasma, eye drops 5 mg/mL, 1 h, read-out: Plasma concentration", "result": 172, "unit": "nM"}, {"measurement": "concentration at 4 h", "setting": "[4]; plasma, eye drops 5 mg/mL, 4 h, read-out: Plasma concentration", "result": 24.4, "unit": "nM"}]}
